Series [1] is described as follows: (§1) Cytotoxicity against mouse B16F10 cells assessed as reduction in cell viability after 48 hrs by MTT assay. The note with it: B16-F10, 48 h. It counts as functional, cell-based.
The nature of series [2]: (§2) Cytotoxicity against human A549 cells assessed as reduction in cell viability after 48 hrs by MTT assay. It counts as functional, cell-based. The note with it: A549, 48 h. (In general: Tetrazolium dyes change colour on reduction, which living cells bring about.)
For the next series, the system named is PANC-1. The series can be described thus: Cytotoxicity against human PANC1 cells assessed as reduction in cell viability up to 100 uM after 48 hrs by MTT assay. It counts as functional, cell-based.
The test system of series [3] is B16-F10. The description is as §1. The format is functional, cell-based.
For the next series, the system named is A549. The description is as §2. The format is functional, cell-based.
A short description of series [4]: Cytotoxicity against CHO cells assessed as reduction in cell viability up to 100 uM after 48 hrs by MTT assay. Particulars: chinese hamster. It counts as toxicity, cell-based, Cricetulus griseus.
The nature of series [5]: Cell cycle arrest in mouse B16F10 cells assessed as accumulation in sub G0/G1 phase at 50 uM after 24 hrs by propidium iodide staining based FACS analysis. It counts as functional. The note with it: B16-F10. Background: Flow cytometry measures light scatter and fluorescence of single cells or particles in a stream.
A short description of series [6]: Cell cycle arrest in mouse B16F10 cells assessed as decrease in G0/G1 phase at 50 uM after 24 hrs by propidium iodide staining based FACS analysis. It counts as functional. Particulars: B16-F10.
The test system of series [7] is B16-F10. The series can be described thus: Induction of apoptosis in mouse B16F10 cells assessed as DNA damage at 50 uM after 24 hrs by propidium iodide/Hoechst staining based FACS analysis. The format is functional, cell-based.
The nature of series [8]: Cytotoxicity against CHO cells assessed as reduction in cell viability up to 10 uM after 48 hrs by MTT assay. The note with it: chinese hamster. The format is toxicity, cell-based, Cricetulus griseus.
Series [9] is described as follows: Cytotoxicity against CHO cells assessed as reduction in cell viability at 50 to 100 uM after 48 hrs by MTT assay. It counts as toxicity, cell-based, Cricetulus griseus. The note with it: chinese hamster.
In series [10] the test system is B16-F10. The series can be described thus: Induction of intracellular hydrogen peroxide accumulation in mouse B16F10 cells at 50 uM after 24 hrs by DCF-DA staining based fluorescence microscopic analysis. The format is functional, cell-based.
Series [11] relates to B16-F10. The series can be described thus: Induction of intracellular superoxide radical accumulation in mouse B16F10 cells at 50 uM by dihydroethidium staining based fluorescence microscopic analysis. It counts as functional, cell-based.
Series [12] can be described thus: Cell cycle arrest in mouse B16F10 cells assessed as accumulation in G2/M phase at 50 uM after 24 hrs by propidium iodide staining based FACS analysis. The format is functional. The note with it: B16-F10.
Series [13] in a line: Cytotoxicity against mouse B16F10 cells assessed as inhibition of cell viability at 4 uM after 48 hrs by MTT assay relative to control. It counts as functional. Particulars: B16-F10, 48 h.
The nature of series [14]: Cytotoxicity against human A549 cells assessed as inhibition of cell viability at 4 uM after 48 hrs by MTT assay relative to control. The format is functional. Particulars: A549, 48 h.

Molecules are shown by their SMILES. Active and inactive are the calls of the source. The calls are words filed in the database; no cut-off is given here.

With `CCNCC(=O)Nc1ccc(/N=C2\SCC(=O)N2Cc2cccs2)cc1`, the half-maximal inhibitory concentration (IC50) (commonly the concentration that inhibits the measured activity by half) in series [1] came out at 11.6 µM; in series [2], 12.6 µM. The result in the series on PANC-1 was Active.
For `O=C(CN1CCCCC1)Nc1ccc(/N=C2\SCC(=O)N2Cc2ccco2)cc1`, the result in the series with B16-F10 [3] and in the series on A549 was Active.
For `O=C(CN1CCSCC1)Nc1ccc(/N=C2\SCC(=O)N2Cc2ccco2)cc1`, the outcome in the series on B16-F10 [3] and in the series with A549 was Active.
Take `O=C(CN1CCCC1)Nc1ccc(/N=C2\SCC(=O)N2Cc2cccs2)cc1`: in series [1], the IC50 was 5.4 µM. In addition, the Activity result in series [4] is reported as “Non-Toxic”. Further, the outcome (in series [5]; in [6]; with B16-F10 [7]) was Active.
`CCN(CC)CC(=O)Nc1ccc(/N=C2\SCC(=O)N2Cc2ccco2)cc1`: the outcome in the series with B16-F10 [3] and in the series with A549 was Active.
For `N#Cc1ccccc1N1CCN(CC(=O)Nc2ccc(/N=C3\SCC(=O)N3Cc3ccco3)cc2)CC1`, the outcome with B16-F10 [3] and in the series with A549 was Active.
Turning to `CN1CCN(CC(=O)Nc2ccc(/N=C3\SCC(=O)N3Cc3cccs3)cc2)CC1`, the outcome with B16-F10 [3] and in the series with A549 was Active.
Take `CN(C)CC(=O)Nc1ccc(/N=C2\SCC(=O)N2Cc2ccco2)cc1`: the outcome with B16-F10 [3] and in the series with A549 was Active.
Regarding `CCN(CC)CC(=O)Nc1ccc(/N=C2\SCC(=O)N2Cc2cccs2)cc1`, the IC50 in series [1] stood at 7 µM; in series [2] it was 12.5 µM. Further, the Activity result in series [4] was “Non-Toxic”. In addition, the outcome (in series [5]; in [6]; in the series on B16-F10 [7]) was Active.
Regarding `O=C(CN1CCN(C(=O)c2ccccc2)CC1)Nc1ccc(/N=C2\SCC(=O)N2Cc2cccs2)cc1`, in series [2], the half-maximal inhibitory concentration (IC50) was 10 µM.
With `O=C(CN1CCCC1)Nc1ccc(/N=C2\SCC(=O)N2Cc2ccco2)cc1`, the result in the series on B16-F10 [3] and with A549 was Active.
For `O=C(CN1CCOCC1)Nc1ccc(/N=C2\SCC(=O)N2Cc2ccco2)cc1`, the outcome in the series with B16-F10 [3] and in the series with A549 was Active.
For the molecule `CN(C)CC(=O)Nc1ccc(/N=C2\SCC(=O)N2Cc2cccs2)cc1`, the outcome in the series on B16-F10 [3] and with A549 was Active.
With `CCCNCC(=O)Nc1ccc(/N=C2\SCC(=O)N2Cc2cccs2)cc1`, the IC50 in [1] is 3.4 µM. In addition, the Activity entry was “Non-Toxic” in [8] and “Toxic” in series [9]. Moreover, the result (in the series on B16-F10 [10]; in the series on B16-F10 [11]; in [12]; in the series on B16-F10 [7]) was Active.
For the molecule `O=C(CN1CCSCC1)Nc1ccc(/N=C2\SCC(=O)N2Cc2cccs2)cc1`, the IC50 in [2] was 10 µM.
Regarding `COc1cccc2c1C(=O)c1c(O)c3c(c(O)c1C2=O)C[C@@](O)(C(=O)CO)C[C@@H]3O[C@H]1C[C@H](N)[C@H](O)[C@H](C)O1` [DOXORUBICIN], the figures for the inhibition at 4 µM in [13] and in series [14] were 40.9% and 28%, respectively.
Take `COc1ccccc1N1CCN(CC(=O)Nc2ccc(/N=C3\SCC(=O)N3Cc3ccco3)cc2)CC1`: the result with B16-F10 [3] and in the series on A549 was Active.
As for `O=C(CN1CCCCC1)Nc1ccc(/N=C2\SCC(=O)N2Cc2cccs2)cc1`, the result in the series with B16-F10 [3] and in the series on A549 was Active.
For the molecule `O=C(CN1CCN(c2ccc(F)cc2)CC1)Nc1ccc(/N=C2\SCC(=O)N2Cc2cccs2)cc1`, the outcome with B16-F10 [3] and with A549 was Active.
For `O=C(CN1CCN(c2ccccn2)CC1)Nc1ccc(/N=C2\SCC(=O)N2Cc2cccs2)cc1`, the outcome with B16-F10 [3] and in the series with A549 was Active.
`O=C(CN1CCOCC1)Nc1ccc(/N=C2\SCC(=O)N2Cc2cccs2)cc1`: in series [2], the IC50 amounted to 12.6 µM.

The values above are taken from ChEMBL document CHEMBL3856232, “Synthesis and biological evaluation of novel 2-imino-4-thiazolidinone derivatives as potent anti-cancer agents” (Bioorg Med Chem Lett, 2016).
